Reference: US9630964B2, “Fluoro-9-methyl-β-carbolines” (priority 2013, dated 2017)

What was measured:
[1] = test system: Lif (Leukemia inhibitory factor); test: Quantitative RT-PCR, relative gene expression of Lif in SH-SY5Y cells; format: cell-based, human; settings: 30 μM each
Protocol: (§1) SH-SY5Y cell lines, which were provided by the institute of human genetics of university hospital Eppendorf and which they in turn received from Braunschweig resource center, were used again for the RT-PCR experiments (reverse transcriptase polymerase chain reaction) carried out for this purpose.
(§2) The cells were incubated in MEM (Minimum essential medium, Life Technologies) with 10% FCS (fetal calf serum, Biochrom AG) and penicillin/streptomycin (Biochrom AG). The cells were seeded with a density of 1×10^5 cells/cm^2 in 25 cm^2 cell culture bottles (Falcon, cell culture treated) with 5 mL medium. Stock solutions of 10 mmol/L of compounds 9-methyl-β-carboline (AC-002 or 9MβC) and 6-fluoro-9-methyl-β-carboline (AC-102 or 6F9MβC), respectively were prepared in distillated water and sterile filtered. One day after the cell seeding the compounds were added in corresponding amounts (5-55 μL) to reach final concentration in the medium of 10 μM, 20 μM and 30 μM for 6F9MβC and 30 μM, 50 μM and 70 μM for 9MβC. The references received only the corresponding amount of solvent (distilled water). The medium was changed once a week.
(§3) The cells were regularly microscopically examined and harvest after 2, 7 and 14 days of incubation time, washed with PBS and immediately frozen at −80° C.
(§4) The RNA-isolation was done with the HighPure RNA Isolation kit of the company Roche. This isolation includes a DNaseI digestion. The concentration of RNA was measured with nanoDrop spectrometer and the RNA integrity was determined with the aid of the Bioanalyzer 2100 (Agilent). By using random hexamer primers, protector RNA inhibitor (Roche) and transcriptor reverse transcriptase (fermentas), 300 ng RNA were transcribed into cDNA per each sample.
(§5) After the reaction, this run was diluted 1:4 and thereof 2 μL per each quantitative RT-PCR were used. This was performed in a LightCycler 480 under standard conditions in the SybrGreen format with annealing temperatures determined for each primer individually. If possible, exon spanning primers were used.
(§6) The specificity was verified by melting curve analysis and subsequent gel electrophoresis. For each PCR the PCR efficiency and the Cq value was determined by the program LinRegPCR and these were used in further calculations. B2M (β2-microglobulin) was identified from multiple reference genes to be suitable for examination conditions. All results are results relative to the corresponding reference conditions, at which only solvent was administered for the specified period of time (i.e. 2 days, 7 days or 14 days). In FIGS. 5A to 5I are also relative gene expressions (relative to reference conditions) presented. Here, the 2-day exposition is presented in light grey, the 7-day exposition in dark grey and the 14-day exposition in black. Every measured value from FIGS. 5A-5I represents a mean value of 3 independent biologic samples.
(§7) Analogous to example 4 RT-PCR experiments with the inventive active agent 7-fluoro-9-methyl-β-carboline (7F9MβC) were also performed for some important cellular factors. The experimental procedure was here identical to the experiments with 6-fluoro-9-methyl-β-carboline and 9-methyl-β-carboline. Here the same (like for 6F9MβC) final concentrations of 30 μM, 50 μM and 70 μM 7F9MβC for the culture medium were employed. The examined factors were BDNF (brain-derived neurotrophic factor), Lif (Leukemia inhibitory factor), DRD2S (short variant of dopamine receptor subtype 2) as well as DKK1 (Dickkopf-related protein 1). The same primers, that were already listed for the respective target genes in example 4 (Tab. 1) were used. As already noted, especially BDNF and Lif belongs to the most important factors for cellurar repair processes after traumas in the inner ear.

quotient Bax/Bcl2 = test: Quantitative RT-PCR, quotient Bax/Bcl2 (apoptosis marker) in SH-SY5Y cells; format: cell-based, human; settings: 30 μM each, except after 2-day exposition
Protocol: as §1
The cells were incubated in MEM (Minimum essential medium, Life Technologies) with 10% FCS (fetal calf serum, Biochrom AG) and penicillin/streptomycin (Biochrom AG). The cells were seeded with a density of 1×10^5 cells/cm^2 in 25 cm^2 cell culture bottles (Falcon, cell culture treated) with 5 mL medium. […]
The RNA-isolation was done with the HighPure RNA Isolation kit of the company Roche. […] The concentration of RNA was measured with nanoDrop spectrometer and the RNA integrity was determined with the aid of the Bioanalyzer 2100 (Agilent). […]
After the reaction, this run was diluted 1:4 and thereof 2 μL per each quantitative RT-PCR were used. This was performed in a LightCycler 480 under standard conditions in the SybrGreen format with annealing temperatures determined for each primer individually. […]
The specificity was verified by melting curve analysis and subsequent gel electrophoresis. For each PCR the PCR efficiency and the Cq value was determined by the program LinRegPCR and these were used in further calculations. […]

[2] = test system: DRD2S (short variant of dopamine receptor subtype 2); test: Quantitative RT-PCR, relative gene expression of DRD2S in SH-SY5Y cells; format: cell-based, human; settings: 30 μM each
Protocol: as §1, §2, §3, §4, §5, §6, §7

CREB = test: Examination on cellular level: concentration of CREB; format: cell-based
learning behavior = test: Eight-armed labyrinth learning test; format: in vivo, rat; settings: rats, 2 mg/kg intraperitoneally daily, 2 hours before session; control group 14 days
Protocol: In an eight-armed labyrinth the effect of 6F9MβC on the learning behavior was tested. 5 months old male rats were got used to the experimenter in daily sessions for 10 days. Afterwards, they were allowed to explore the labyrinth in multiple sessions for 2 days and they also learnt that they get a food reward there. Then the food was reduced until the body weight was reduced by 10% of the starting weight. Afterwards, at each end of the 8 arms of the labyrinth food was placed and a camera installed that recorded every movement of the animal. On the first test day the rat was placed without a prior injection on the platform in the center of the labyrinth. At the next day 2 mg/kg body weight 6-fluoro-9-methyl-β-carboline (6F9MβC) as free base dissolved in physiological sodium chloride solution was administered intraperitoneally to the rat by the experimenter. 2 hours later the animal was placed on the platform in the center of the labyrinth from where it had access to all arms. This procedure was repeated daily until the animal only did one mistake, i.e. went in an arm, which it had already entered before in the corresponding session. At the end of the session all 8 arms had to be visited.
12 rats, that were treated with 6F9MβC and a control group of 12 rats, that only got physiological sodium chloride solution, were examined. […]

Q: For `Cn1c2ccc(F)cc2c2ccncc21` [6F9MβC, 6-fluoro-9-methyl-β-carboline], which “Lif expression relative to expression induced by 9MβC” value ([1]; 2-day exposition) is on record?
A: approximately three times as high

Q: What about the “Lif expression relative to expression induced by 9MβC” value ([1]; 7-day exposition) of the same compound?
A: slightly lower

Q: What about the “Lif expression relative to expression induced by 9MβC” value ([1]; 14-day exposition) of the same compound?
A: approximately twice as high

Q: And the “quotient Bax/Bcl2 compared to 9MβC” value (quotient Bax/Bcl2)?
A: significantly lower

Q: What about the “DRD2S expression relative to expression induced by 9MβC” value ([2]; 2-day exposition) of the same compound?
A: higher

Q: And the “DRD2S expression relative to expression induced by 9MβC” value ([2]; 7-day exposition)?
A: lower

Q: And the “DRD2S expression relative to expression induced by 9MβC” value ([2]; 14-day exposition)?
A: higher

Q: What about the “increase of the concentration of CREB (factor)” value (CREB) of the same compound?
A: 8

Q: What about the “time until the criteria (only one mistake) were reached” value (learning behavior) of the same compound?
A: 6 days
